Test system: Daudi-Cas9 cells
Assay: Cancer-T cell co-culture genome-wide CRISPR knockout screen (Vγ9Vδ2 T cell killing)
Assay type: cell-based, human
Conditions: for score: MAGeCK sgRNA test, co-culture screen; for LFC: log-fold change of sgRNA, surviving cells after co-culture vs baseline; for LFC / treat mean: MAGeCK; for treat mean: sgRNA abundance in surviving Daudi-Cas9 KO cells after 24 hours Vγ9Vδ2 T cell co-culture with zoledronate; for high_in_treatment: sgRNA enriched (TRUE) or depleted (FALSE) after T cell co-culture

Substance | score | LFC | treat mean | high_in_treatment
TTC7A_CAGTACGTCATGCTCTCGG: library sgRNA targeting TTC7A (listed as DNA, chemistry not fully specified) | 6.0307 | −5.2629 | 63.697 | FALSE
SNF8_ACCATTGGCGTGGATCCGC: library sgRNA targeting SNF8 (as printed in the source, key not given here) | 6.4788 | −6.2459 | 35.261 | FALSE
BTN3A1_GGGAGCCGGTTACTTCCTG: library sgRNA targeting BTN3A1 (listed as DNA, chemistry not fully specified) | 21.24 | 2.5697 | 7249.9 | TRUE
RFXAP_AGACACTTCGGACCCTCCG: library sgRNA targeting RFXAP (listed as DNA, chemistry not fully specified) | 10.922 | 1.5343 | 6378.3 | TRUE
BTN3A1_CTTCTTCAGGAGCGCCCAG: library sgRNA targeting BTN3A1 (listed as DNA, chemistry not fully specified) | 19.78 | 2.2076 | 9150.3 | TRUE
GGNBP2_GTATGGGAACTAATGTCGC: library sgRNA targeting GGNBP2 (listed as DNA, chemistry not fully specified) | 6.4369 | 1.4472 | 2491.2 | TRUE
IRF1_GGAAGCATGCTGCCAAGCA: library sgRNA targeting IRF1 (as printed in the source, key not given here) | 8.5638 | 1.6107 | 3499.5 | TRUE
TRMT61A_CACGTCACCTTGGAGCCGA: library sgRNA targeting TRMT61A (listed as DNA, chemistry not fully specified) | 6.3388 | −3.6911 | 242.28 | FALSE
SPIB_GGGGGGTTCGTAGCAGAGC: library sgRNA targeting SPIB (as printed in the source, key not given here) | 6.2733 | 1.2452 | 3280.6 | TRUE
RFXAP_ACGAGGAGACTCACTCGGG: library sgRNA targeting RFXAP (listed as DNA, chemistry not fully specified) | 6.9897 | 2.2103 | 1110.2 | TRUE
SAE1_TGCTTCTTGTCGGCTTGAA: library sgRNA targeting SAE1 (listed as DNA, chemistry not fully specified) | 7.1879 | −7.4222 | 19.337 | FALSE
MTG2_ATGAGTACATTGCCGCGCT: library sgRNA targeting MTG2 (listed as DNA, chemistry not fully specified) | 6.5262 | −4.2612 | 163.79 | FALSE
BTN2A1_ATGAGGGGCCATGAAGACG: library sgRNA targeting BTN2A1 (listed as DNA, chemistry not fully specified) | 7.3174 | 2.3876 | 1007.3 | TRUE
CCDC82_AAGAGCTTGATAGTAACAA: library sgRNA targeting CCDC82 (listed as DNA, chemistry not fully specified) | 7.3303 | 4.8194 | 83.034 | TRUE
WDR61_ATTCCATCTATGGCTCCAC: library sgRNA targeting WDR61 (as printed in the source, key not given here) | 6.193 | −9.1046 | 2.9058 | FALSE
RPP21_GCACTCACGTCTCTGGCGC: library sgRNA targeting RPP21 (as printed in the source, key not given here) | 6.2576 | −7.9412 | 9.6859 | FALSE
SHMT2_CAACCTCACGACCGGATCA: library sgRNA targeting SHMT2 (listed as DNA, chemistry not fully specified) | 5.9975 | −5.253 | 63.415 | FALSE
SPIB_GGGTACGGGGCATATGCCG: library sgRNA targeting SPIB (as printed in the source, key not given here) | 10.693 | 1.7824 | 4360 | TRUE

Substance | score | LFC | treat mean | high_in_treatment
SCO1_CACCCCCGTGGTCGCAGAA: library sgRNA targeting SCO1 (listed as DNA, chemistry not fully specified) | 10.413 | −3.6001 | 714.32 | FALSE
NUP37_GCCAGCACACACTCATGCC: library sgRNA targeting NUP37 (listed as DNA, chemistry not fully specified) | 5.9656 | −1.9711 | 1092.8 | FALSE
BLQC1S1_ACCAAAGCTTCTGTCAGGC: library sgRNA targeting BLQC-1S1 (listed as DNA, chemistry not fully specified) | 6.0173 | −1.8638 | 1264.6 | FALSE
MRPL9_CTCCACGATGACCGTGCCC: library sgRNA targeting MRPL9 (as printed in the source, key not given here) | 6.5755 | −4.3743 | 152.42 | FALSE
ALG12_TGCGATCACCACTGGCCCG: library sgRNA targeting ALG12 (listed as DNA, chemistry not fully specified) | 6.0622 | −3.0699 | 374.84 | FALSE
FBXW7_TTCTTCCAACTGTCCTTGC: library sgRNA targeting FBXW7 (as printed in the source, key not given here) | 7.5154 | 1.1042 | 6114.5 | TRUE
ACAT2_CAAGTGAGTAGAGAAGATC: library sgRNA targeting ACAT2 (listed as DNA, chemistry not fully specified) | 6.1049 | 1.9893 | 1085.8 | TRUE
PSMG4_CACCTGCGCAACCTCGCCG: library sgRNA targeting PSMG4 (listed as DNA, chemistry not fully specified) | 6.1467 | −3.4412 | 279.92 | FALSE
SPIB_GCTAGCGAAGTTCTCCGTG: library sgRNA targeting SPIB (as printed in the source, key not given here) | 8.8597 | 1.4916 | 4447.4 | TRUE
ALCAM_GTGTGCATGCTAGTAACTG: library sgRNA targeting ALCAM (listed as DNA, chemistry not fully specified) | 6.8519 | 1.5404 | 2462.2 | TRUE
ZC3H12A_CCGTGACCTCCAAGGCGAG: library sgRNA targeting ZC3H12A (listed as DNA, chemistry not fully specified) | 6.507 | 1.2168 | 3712.6 | TRUE
NUDCD3_TCACCACGTGCTTGGGTAC: library sgRNA targeting NUDCD3 (listed as DNA, chemistry not fully specified) | 6.5243 | −3.6651 | 262.75 | FALSE
SPIB_CTGGGGCTACTGACGCGCG: library sgRNA targeting SPIB (as printed in the source, key not given here) | 12.692 | 1.6241 | 7610.7 | TRUE
GMPPB_GCCGTGAGCTACATGTCGC: library sgRNA targeting GMPPB (listed as DNA, chemistry not fully specified) | 6.4797 | −2.6559 | 627.87 | FALSE
HISTIH3J_CACGCAAGGCCACGGTGCC: library sgRNA targeting HIST-1H3J (listed as DNA, chemistry not fully specified) | 6.0349 | 1.0769 | 4138.5 | TRUE
FCRL2_ACTATTTCTGTAGTACCAA: library sgRNA targeting FCRL2 (listed as DNA, chemistry not fully specified) | 6.1577 | 2.9186 | 417.46 | TRUE
IFNAR1_TCCATCAGATGCTTGTACG: library sgRNA targeting IFNAR1 (listed as DNA, chemistry not fully specified) | 7.1422 | 1.2274 | 4399.3 | TRUE

From patent publication US20240115705A1, “Regulation of Butyrophilin subfamily 3 member A1 (BTN3A1, CD277)” (The J. Gladstone Institutes, a testamentary trust …, priority 2021, published 2024)
